pIC50: −log10 of the molar value.
Target: Urease (Canavalia ensiformis, UniProt P07374)
Test: Urease Inhibition Assay

Urease, sequence (P07374 whole entry): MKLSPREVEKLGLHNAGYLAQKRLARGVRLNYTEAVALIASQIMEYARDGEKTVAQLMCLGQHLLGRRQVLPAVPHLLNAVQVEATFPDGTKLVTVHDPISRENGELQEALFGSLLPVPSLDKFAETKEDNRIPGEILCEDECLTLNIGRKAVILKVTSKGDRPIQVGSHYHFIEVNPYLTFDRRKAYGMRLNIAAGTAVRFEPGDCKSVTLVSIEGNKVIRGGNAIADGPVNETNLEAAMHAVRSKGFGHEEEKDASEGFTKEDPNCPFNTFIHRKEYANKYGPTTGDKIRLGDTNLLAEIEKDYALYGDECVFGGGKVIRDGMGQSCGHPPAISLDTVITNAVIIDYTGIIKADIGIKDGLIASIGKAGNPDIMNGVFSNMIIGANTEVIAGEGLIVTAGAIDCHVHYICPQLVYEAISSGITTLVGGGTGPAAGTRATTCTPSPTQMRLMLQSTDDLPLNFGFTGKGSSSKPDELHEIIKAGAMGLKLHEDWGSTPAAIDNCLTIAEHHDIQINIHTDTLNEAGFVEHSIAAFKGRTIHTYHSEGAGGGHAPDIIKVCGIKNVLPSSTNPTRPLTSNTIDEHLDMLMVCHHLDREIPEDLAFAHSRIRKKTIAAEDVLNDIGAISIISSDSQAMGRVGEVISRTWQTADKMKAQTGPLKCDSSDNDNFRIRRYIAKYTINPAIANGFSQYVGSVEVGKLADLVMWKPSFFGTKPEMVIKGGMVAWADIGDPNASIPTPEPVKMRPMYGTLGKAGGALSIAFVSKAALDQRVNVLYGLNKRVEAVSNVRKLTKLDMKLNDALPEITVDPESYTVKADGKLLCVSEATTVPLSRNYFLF

SMILES	pIC50
OC(c1ccccc1)c1n[nH]c(=S)n1-c1ccc(Cl)cc1 (stereo unspecified) [5-(Hydroxybenzyl)-4-(4-chlorophenyl)-2H-1,2,4-triazole-3-thione (5b)]	4.72
OC(c1ccccc1)c1n[nH]c(=S)n1-c1ccc(Br)cc1 (stereo unspecified) [5-(Hydroxybenzyl)-4-(4-bromophenyl)-2H-1,2,4-triazole-3-thione (5a)]	4.49
O=[N+]([O-])c1ccc(-n2c(C(O)c3ccccc3)n[nH]c2=S)cc1 (stereo unspecified) [5-(Hydroxybenzyl)-4-(4-nitrophenyl)-2H-1,2,4-triazole-3-thione (5e)]	3.88
Cc1ccc(-n2c(C(O)c3ccccc3)n[nH]c2=S)cc1 (stereo unspecified) [5-(Hydroxybenzyl)-4-(4-methylphenyl)-2H-1,2,4-triazole-3-thione (5d)]	4.78
Cc1ccc(Nc2nnc(C(O)c3ccccc3)o2)cc1 (stereo unspecified) [5-(Hydroxybenzyl)-2-(4-methylphenyl)amino-1,3,4-oxadiazole (4d)]	4.79
O=[N+]([O-])c1ccc(Nc2nnc(C(O)c3ccccc3)o2)cc1 (stereo unspecified) [5-(Hydroxybenzyl)-2-(4-nitrophenyl)amino-1,3,4-oxadiazole (4e)]	4.10

— BindingDB's records for doi:10.3109/14756360903389864 (Quaid-I-Azam University, 2010)
